Assay results reported in publication PMC10017685 (Nature Communications, 2023).
Where two headings read alike, the source gives them in different places. Peptide text beside a SMILES is read from it.

Columns and labels:
Sheep red blood cells = experiment: Hemolysis assay (HC50); format: cell-based
Experimental: The hemolysis assay was conducted according to the procedure described previously. Sheep red blood cells (Defibrillated Sheep Blood, Graso, Poland) were used. […] Then the solution of RBCs was added to each well (100 μL with a 4% concentration of erythrocytes (v/v). The control wells for 0 and 100% hemolysis were also prepared: RBCs suspended in PBS and 1% of Triton-X 100, respectively. After that the plates were incubated for 60 min at 37 °C and then centrifuged at 800 × g for 10 min at 4 °C (Sorvall ST 16R Centrifuge, Thermo Scientific). The supernatant was carefully […] to new microtiter plates and the release of hemoglobin was measured at 590 nm (Multiskan™ GO Microplate Spectrophotometer, Thermo Scientific). Hemolysis for each concentration was calculated as the percentage of control with 100% hemolysis. All experiments were conducted in triplicate. The final values of HC50 were computed using ic50.tk tool.

human erythrocytes = tested on: human erythrocytes; set-up: method as in DBAASP; conditions: cited from earlier work
[1] = toxicity class label 1 or 0, meaning of the labels not given, DBAASP HC50 data, human erythrocytes, ref DBAASP

Compound `CC[C@H](C)[C@H](NC(=O)[C@H](CCCCN)NC(=O)[C@H](CC(N)=O)NC(=O)[C@@H](NC(=O)[C@@H](NC(=O)[C@H](CCCCN)NC(=O)[C@@H](NC(=O)[C@H](C)NC(=O)[C@@H](NC(=O)[C@H](Cc1c[nH]cn1)NC(=O)CNC(=O)[C@H](C)NC(=O)[C@H](CC(C)C)NC(=O)[C@H](CC(=O)O)NC(=O)[C@H](CCCCN)NC(=O)[C@H](C)NC(=O)[C@H](C)NC(=O)CNC(=O)[C@H](CCCCN)NC(=O)[C@H](CC(C)C)NC(=O)[C@@H](NC(=O)[C@H](CC(=O)O)NC(=O)[C@H](CC(C)C)NC(=O)[C@@H](NC(=O)CN)C(C)C)[C@@H](C)CC)C(C)C)[C@@H](C)O)C(C)C)[C@@H](C)CC)C(N)=O` [Syphaxin] (H-GVLDILKGAAKDLAGHVATKVINKI-NH2) has an HC50 (Sheep red blood cells) greater than 512 µg/mL and an HC50 (Sheep red blood cells; red cells of sheep) greater than 512 µg/mL.

For `CC[C@H](C)[C@H](NC(=O)CN)C(=O)NCC(=O)N[C@@H](CCCCN)C(=O)N[C@@H](Cc1ccccc1)C(=O)N[C@@H](CC(C)C)C(=O)N[C@@H](CCCCN)C(=O)N[C@@H](CCCCN)C(=O)N[C@@H](C)C(=O)N[C@@H](CCCCN)C(=O)N[C@@H](CCCCN)C(=O)N[C@@H](Cc1ccccc1)C(=O)NCC(=O)N[C@@H](CCCCN)C(=O)N[C@@H](C)C(=O)N[C@@H](Cc1ccccc1)C(=O)N[C@H](C(=O)N[C@@H](CCCCN)C(=O)N[C@H](C(=O)N[C@@H](CC(C)C)C(=O)N[C@@H](CCCCN)C(=O)N[C@@H](CCCCN)C(N)=O)[C@@H](C)CC)C(C)C` [Pexiganan] (H-GIGKFLKKAKKFGKAFVKILKK-NH2), the HC50 (Sheep red blood cells) was greater than 512 µg/mL and the HC50 (Sheep red blood cells; red cells of sheep) was greater than 512 µg/mL.

For TIAMRAINNYRWRSKNQNTFLR [DBAASP_6544], the “Class (dedicated toxicity dataset used for toxicity classifier evaluation)” value (shortened to “Class”) (human erythrocytes; [1]) is given as 1.

In the case of SILPTIVSFLSKVF [DBAASP_13348], the “Class” value (human erythrocytes; [1]) is given as 1.

In the case of RIRFPWPWRWPWWPRFRG [DBAASP_8616], the “Class” value (human erythrocytes; [1]) is given as 0.

For FLPIVAGLAANFLPKIVCKITKKC [DBAASP_1889], the “Class” value (human erythrocytes; [1]) is given as 1.

For FFHHIFRGIVHIGKTIHRLVTG [DBAASP_9010], the “Class” value (human erythrocytes; [1]) is listed as 1.

In the case of FLRFAGSVIHGAGHLVHHIGVAL [DBAASP_11350], the “Class” value (human erythrocytes; [1]) is listed as 0.

In the case of GLLGKLLKIAAKVGKKLL [DBAASP_4927], the “Class” value (human erythrocytes; [1]) is given as 1.

In the case of GLLKAIKTLL [DBAASP_3121], the “Class” value (human erythrocytes; [1]) is listed as 0.

In the case of FLQHIIGALSHFF [DBAASP_10247], the “Class” value (human erythrocytes; [1]) is given as 0.

For GFKDLLKGAAKALVKTVLK [DBAASP_11235], the “Class” value (human erythrocytes; [1]) is listed as 0.

For KIWFQNKKMKWKK [DBAASP_8802], the “Class” value (human erythrocytes; [1]) is listed as 0.

For GFKDLLKGAAKALKKTVLF [DBAASP_4908], the “Class” value (human erythrocytes; [1]) is given as 0.

For GLLKPLLKIAAKVGSNLL [DBAASP_2279], the “Class” value (human erythrocytes; [1]) is given as 0.

In the case of GKWKKILGKLIR [DBAASP_3277], the “Class” value (human erythrocytes) is listed as 0.

In the case of GLLKRIKKLL [DBAASP_3148], the “Class” value (human erythrocytes; [1]) is given as 0.

For GMLKRIKTLM [DBAASP_8626], the “Class” value (human erythrocytes; [1]) is given as 0.

For VKRFKKFFRKFKKSV [DBAASP_8772], the “Class” value (human erythrocytes; [1]) is listed as 0.

In the case of GVFLDALKKFAKGGMNAVLNPK [DBAASP_3156], the “Class” value (human erythrocytes; [1]) is given as 0.

In the case of FLPLVTMLLGKLF [DBAASP_3105], the “Class” value (human erythrocytes; [1]) is given as 1.

In the case of FPVTWRWWKWWKG [DBAASP_716], the “Class” value (human erythrocytes; [1]) is listed as 0.

For GLLRASSKWGRKYYVDLAGCAKA [DBAASP_12529], the “Class” value (human erythrocytes; [1]) is listed as 0.

For LWKIWWKIWRVWKNWR [DBAASP_17523], the “Class” value (human erythrocytes; [1]) is listed as 1.

In the case of GFCWRACVYRNGVRVCYRRCN [DBAASP_17226], the “Class” value (human erythrocytes) is listed as 0.

In the case of KWCFRVCYRGICYRRCR [DBAASP_2229], the “Class” value (human erythrocytes) is listed as 0.

In the case of GLLKRIKFLL [DBAASP_3145], the “Class” value (human erythrocytes; [1]) is given as 0.

In the case of FPLTWLKWWKWKK [DBAASP_17184], the “Class” value (human erythrocytes; [1]) is given as 0.

For FLPIIGQLLSGLL [DBAASP_4222], the “Class” value (human erythrocytes; [1]) is given as 0.

In the case of GFKKLLKGAAKALVKTVLF [DBAASP_4900], the “Class” value (human erythrocytes; [1]) is listed as 1.

For GLKALKKVFQGIHEAIKLINNHVQ [DBAASP_6923], the “Class” value (human erythrocytes; [1]) is given as 0.

For FFHHAFRGIVHVGKTIHRLVTG [DBAASP_9003], the “Class” value (human erythrocytes; [1]) is given as 0.

In the case of LLGMIPLAISAISALSKL [DBAASP_3893], the “Class” value (human erythrocytes; [1]) is listed as 0.

For FPVTWPTKWWKG [DBAASP_7115], the “Class” value (human erythrocytes; [1]) is listed as 0.

For FLSLALAALPKFLCLVFKKC [DBAASP_1468], the “Class” value (human erythrocytes; [1]) is listed as 1.

For GFKDLLKGAAKALVKAVLF [DBAASP_4918], the “Class” value (human erythrocytes; [1]) is listed as 1.

For FWSTIWNAAKSLI [DBAASP_18164], the “Class” value (human erythrocytes; [1]) is listed as 1.

For KLLKVIKKLL [DBAASP_3153], the “Class” value (human erythrocytes; [1]) is given as 0.

For GLKKIFKKGLGSLVKGIAAHVAS [DBAASP_4410], the “Class” value (human erythrocytes; [1]) is given as 0.

For GLKEVAHSAKKFAKGFISGLTGS [DBAASP_5713], the “Class” value (human erythrocytes; [1]) is given as 0.

For FLSLLPHIASGIASLVSKF [DBAASP_12382], the “Class” value (human erythrocytes; [1]) is listed as 1.

For KIFGAIWPLALGALKNLIK [DBAASP_7010], the “Class” value (human erythrocytes; [1]) is listed as 1.

In the case of GFKDLLKGAAKALVKTVLF [DBAASP_2302], the “Class” value (human erythrocytes; [1]) is given as 0.

In the case of IKWKKLLRAAKRIL [DBAASP_2253], the “Class” value (human erythrocytes; [1]) is listed as 0.

In the case of SAVGRHLRRFLLRKHRKH [DBAASP_7660], the “Class” value (human erythrocytes; [1]) is given as 0.

For VQWRIRVAVIRK [DBAASP_7680], the “Class” value (human erythrocytes; [1]) is listed as 0.

For FPVTWPTKWLKG [DBAASP_9721], the “Class” value (human erythrocytes; [1]) is given as 0.

For GILSSLLKKLKKIIAK [DBAASP_8905], the “Class” value (human erythrocytes) is listed as 0.

In the case of GIMSSLMKKLKKHIAK [DBAASP_8897], the “Class” value (human erythrocytes; [1]) is given as 0.

In the case of RWWLRRIW [DBAASP_10630], the “Class” value (human erythrocytes; [1]) is listed as 0.

In the case of GLLKKLLKIAAKVGKKLL [DBAASP_4928], the “Class” value (human erythrocytes; [1]) is given as 1.

In the case of GWKKWFNRAKKVGKTVGGLAVDHYL [DBAASP_996], the “Class” value (human erythrocytes; [1]) is given as 0.

In the case of SKVWRHWRRFWHRAHRKL [DBAASP_14980], the “Class” value (human erythrocytes; [1]) is given as 0.

For ALWKTMLKKLGTMALHAGK [DBAASP_10088], the “Class” value (human erythrocytes; [1]) is given as 0.

In the case of KRIVQRIKDFLR [DBAASP_146], the “Class” value (human erythrocytes; [1]) is listed as 0.

In the case of GWLDVAKKIGKAAFNVAKNFL [DBAASP_10137], the “Class” value (human erythrocytes; [1]) is listed as 0.

For GIGKFLKKAKKFGKAFVKILKK [DBAASP_763], the “Class” value (human erythrocytes; [1]) is listed as 0.

For GLLGPLLKIAAKVGKNLL [DBAASP_4924], the “Class” value (human erythrocytes; [1]) is listed as 0.

For WLRRIGKGVKIIGGAALDHL [DBAASP_5344], the “Class” value (human erythrocytes; [1]) is given as 0.

In the case of WKKIWSKIKKLLK [DBAASP_7155], the “Class” value (human erythrocytes; [1]) is listed as 0.

In the case of RPPQFTRAQWFAIQHISLN [DBAASP_6545], the “Class” value (human erythrocytes; [1]) is given as 1.

In the case of GLFDIWKWWRWRR [DBAASP_10052], the “Class” value (human erythrocytes; [1]) is listed as 0.

For SAVLRHLRRFLLRKHRKH [DBAASP_7661], the “Class” value (human erythrocytes; [1]) is listed as 0.

In the case of KKYLLPIVGNLLKSLL [DBAASP_7638], the “Class” value (human erythrocytes; [1]) is listed as 0.

In the case of HFLGTLVKLAKKIL [DBAASP_5021], the “Class” value (human erythrocytes; [1]) is listed as 0.

In the case of CFKFKFKFGSGFKFKFKFC [DBAASP_352], the “Class” value (human erythrocytes; [1]) is listed as 0.

In the case of KIAKIAGKIAKIAGKIA [DBAASP_14992], the “Class” value (human erythrocytes; [1]) is listed as 0.

In the case of GIWDTIKSMGKVFAGKIKQNL [DBAASP_702], the “Class” value (human erythrocytes; [1]) is given as 0.

For GLNALKKVFQGIHEAIKLINNHVQ [DBAASP_3355], the “Class” value (human erythrocytes; [1]) is given as 0.

In the case of RIRWILRYWRWS [DBAASP_10701], the “Class” value (human erythrocytes; [1]) is given as 0.

For ILPWKWPWWPWRR [DBAASP_491], the “Class” value (human erythrocytes; [1]) is listed as 0.

For FLWALFKVASK [DBAASP_646], the “Class” value (human erythrocytes; [1]) is given as 0.

For VKKFPWWWAFLKK [DBAASP_11305], the “Class” value (human erythrocytes; [1]) is listed as 0.

For FIHHIIGGLFSAGKAIHRLIRRRRR [DBAASP_5623], the “Class” value (human erythrocytes; [1]) is listed as 1.

In the case of GILSSWLKKLKKIIAK [DBAASP_8912], the “Class” value (human erythrocytes) is given as 0.

In the case of GFGMALKLLKKVL [DBAASP_3442], the “Class” value (human erythrocytes; [1]) is listed as 0.

In the case of FIGALLRPALKLLAGK [DBAASP_5719], the “Class” value (human erythrocytes; [1]) is given as 0.

For VRRFPYYWPFLRR [DBAASP_14262], the “Class” value (human erythrocytes; [1]) is given as 0.

In the case of GILSKLLKKLKKIIAK [DBAASP_8909], the “Class” value (human erythrocytes) is given as 0.

In the case of GMATKAGTALGKVAKAVIGAAL [DBAASP_2285], the “Class” value (human erythrocytes; [1]) is listed as 0.
